{"source": "the NIST ThermoML archive (doi:10.1021/je9000872)", "assay": "molar enthalpy of vaporization or sublimation", "conditions": "298.15 K, Calvet microcalorimetry", "note": "Numbers after ± are expanded uncertainties.", "data": [{"molecule": "Oc1ccc(F)cc1", "note": "[4-fluorophenol]", "values": [{"measurement": "molar enthalpy", "setting": "Crystal", "result": "17.7 ± 0.669", "unit": "kcal/mol"}]}, {"molecule": "Oc1cccc(F)c1", "note": "[3-fluorophenol]", "values": [{"measurement": "molar enthalpy", "setting": "Liquid", "result": "14.4 ± 0.43", "unit": "kcal/mol"}]}, {"molecule": "Oc1ccccc1F", "note": "[2-fluorophenol]", "values": [{"measurement": "molar enthalpy", "setting": "Liquid", "result": "12.5 ± 0.382", "unit": "kcal/mol"}]}]}
